According to patent US6107273A, “Tumor necrosis factor inhibitors” (Thomas Jefferson University, priority 1995, dated 2000):
Where “and” joins values, the source holds several entries; their conditions need not be identical. Identical values can stand only once. Square brackets hold non-standard residues; d marks the D form. Ends that are not written are not given here. Pen = CC(C)(S)[C@H](N)C(=O)O; Aib = CC(C)(N)C(=O)O

Test system: WEHI 164 cells
Experiment: In vitro cytotoxicity assay: protection of WEHI 164 cells from TNF-α cytotoxicity (AlamarBlue)
Type: cell-based, mouse
Procedure: In vitro cytotoxicity assay Cell line
The murine fibrosarcoma cell line L929 is widely used for testing TNF-α cytotoxicity in vitro. In addition, other cell lines are available that are more sensitive, such as the WEHI 164, a mouse myosarcoma cell line. Both cell lines were initially screened for use in the following experiments and WEHI 164 cells were chosen for their higher sensitivity.
Cells are maintained in serum free medium Ultraculture (Biowhittaker) with the addition of 2 mM Glutamine. The assay is carried out in the same serum free medium.
In the cytotoxicity assay, a susceptible cell line (WEHI 164) is incubated in medium containing serial dilutions of TNF-α for a set time and the consequent cytotoxic activity, manifested as inhibition of cell growth and/or cell death, is evaluated by spectrophotometer measurements of vital dye uptake.
Peptide stock solutions are made in HBSS at the concentration of 1 mg/ml, sterilized by passage through a 0.20 μm×13 mm cellulose acetate filters (Corning). The solutions were used for no longer than 10 days. All the other dilutions needed for the test were prepared just before the assay in sterile manner using the medium Ultraculture.
WEHI 164 cells are taken from logarithmic growth and seeded in 96 well microtiter plates at the density of 2500 cells/well. The assay is performed 48 hours later, at a cell density of approximately 3000 cells/well. Cells are pre-incubated with serial dilutions of peptides for 30 minutes, then TNF-α is added to the wells and incubated for 16 hours at 37° C. Samples are repeated in triplicate.
Control wells for non treated cells contain medium only. A concentration curve of TNF-α is performed for every assay at concentrations ranging between 200 and 1 ng/ml. A control for full protection from TNF-α cytotoxicity is carried out by pre-incubating TNF-α with A2 antibody (Centocor, Malvern Pa.) for 30 minutes then adding it to the cells.
After 16 hour incubation, the vital dye AlamarBlue (Alamar Biosciences) is added in the amount equal to 10% final volume. The plates are returned to the incubator for 6-10 hours.
Absorbance is evaluated at 570 nm, subtracting the background absorbance measured at 595 nm in a BioRad microtiter plate reader.
Values are expressed as a percentage of cell survival, where the control samples (containing medium only) are referred to as 100%.

[1] = 25 μg/ml peptide, TNF 25 ng/ml, 16 h
[2] = 50 μg/ml peptide, TNF 25 ng/ml, 16 h
[3] = 100 μg/ml peptide, TNF 25 ng/ml, 16 h
[4] = 2.5 μg/ml peptide, TNF 5 ng/ml, 16 h
[5] = 25 μg/ml peptide, TNF 5 ng/ml, 16 h
[6] = 50 μg/ml peptide, TNF 25 pg/ml, 16 h
[7] = 100 μg/ml peptide, TNF 25 pg/ml, 16 h

| Substance | % cell survival [2] [%] | % cell survival [6] [%] | % cell survival [7] [%] | also measured |
| --- | --- | --- | --- | --- |
| CARDNQAC (cysteine pairing not given here) [Peptide 509] |  |  |  | % cell survival (2.5 μg/ml peptide, TNF 25 ng/ml, 16 h): 21 ± 5%; % cell survival [1]: 28.4% |
| CEGAEC (cysteine pairing not given here) [Peptide 561] | 92 ± 20 |  |  | % cell survival [3]: 90 ± 10% |
| CIAVSYQTKC (cysteine pairing not given here) [Peptide 558] | 24 ± 8 |  |  | % cell survival [3]: 26 ± 7% |
| CPETPEGAEAKPC (cysteine pairing not given here) [Peptide 506] |  |  |  | % cell survival [4]: 68%; % cell survival [5]: 88.1% |
| CPQAEGQLC (cysteine pairing not given here) [Peptide 510] |  | 59.3 ± 1 | 60.4 ± 3 |  |
| CPRETPEGAEAKPC (cysteine pairing not given here) [Peptide 505] |  |  |  | % cell survival (100 μg/ml peptide, 30 min pre-incubation, then TNF-α 16 h, TNF concentration not printed (table 1)): 62.7 ± 4% and 32.5 ± 3% |
| CRIAVSYQTKVC (cysteine pairing not given here) [Peptide 557] | 70 ± 3 |  |  | % cell survival [3]: 65 ± 4% |
| CRRANA[dC] (cysteine pairing not given here) [Peptide 512] |  | 70.8 ± 6 | 65.6 ± 8 |  |
| CSYQTKC (cysteine pairing not given here) [Peptide 522] |  |  |  | % cell survival [4]: 81%; % cell survival [5]: 111% |
| CSYQTKVC (cysteine pairing not given here) [Peptide 521] |  | 56.51 ± 3 | 65.26 ± 4 |  |
| Pen-Thr-Pro-Glu-Gly-Ala-Glu-Ala-Pen ([Pen]TPEGAEA[Pen]; cysteine pairing not given here) [Peptide 562] |  | 25.2 ± 7 | 33.1 ± 7 |  |
| [Pen]E[Aib]E[Pen] (cysteine pairing not given here) [Peptide 556] | 71 ± 14 |  |  | % cell survival [1]: 69 ± 18% |
